Laboratory results as given in PubChem BioAssay (NCI).
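Results reflect a 48-hour exposure of cells in 96-well plates to compound at five concentrations. GI50 = concentration required for 50% inhibition of growth. TGI denotes the concentration required for complete inhibition of growth.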

What was measured:
Test in all cases: NCI anticancer screen, dose series, 48 h
SNB-19 CNS = tested on: SNB-19 CNS
UACC-62 melanoma = tested on: UACC-62 melanoma
ACHN renal = tested on: ACHN renal
SK-OV-3 ovarian = tested on: SK-OV-3 ovarian
SR leukemia = tested on: SR leukemia
M14 melanoma = tested on: M14 melanoma
CAKI-1 renal = tested on: CAKI-1 renal
IGROV1 ovarian = tested on: IGROV1 ovarian
K-562 leukemia = tested on: K-562 leukemia
NCI-H226 lung = tested on: NCI-H226 lung
UO-31 renal = tested on: UO-31 renal
SF-268 CNS = tested on: SF-268 CNS
RPMI-8226 leukemia = tested on: RPMI-8226 leukemia
SN12C renal = tested on: SN12C renal
OVCAR-5 ovarian = tested on: OVCAR-5 ovarian
SK-MEL-28 melanoma = tested on: SK-MEL-28 melanoma
OVCAR-4 ovarian = tested on: OVCAR-4 ovarian
BT-549 breast = tested on: BT-549 breast
MCF7 breast = tested on: MCF7 breast
OVCAR-8 ovarian = tested on: OVCAR-8 ovarian
786-0 renal = tested on: 786-0 renal
MDA-MB-435 = tested on: MDA-MB-435
LOX IMVI melanoma = tested on: LOX IMVI melanoma
HCT-15 colon = tested on: HCT-15 colon
DU-145 prostate = tested on: DU-145 prostate
RXF 393 renal = tested on: RXF 393 renal
NCI-H522 lung = tested on: NCI-H522 lung
EKVX NSCLC = tested on: EKVX NSCLC
SK-MEL-2 melanoma = tested on: SK-MEL-2 melanoma
HT29 colon = tested on: HT29 colon
MOLT-4 leukemia = tested on: MOLT-4 leukemia
SW-620 colon = tested on: SW-620 colon
HS 578T breast = tested on: HS 578T breast
MALME-3M melanoma = tested on: MALME-3M melanoma
OVCAR-3 ovarian = tested on: OVCAR-3 ovarian
MDA-MB-231 breast = tested on: MDA-MB-231 breast
SF-295 CNS = tested on: SF-295 CNS
A549 NSCLC = tested on: A549 NSCLC
UACC-257 melanoma = tested on: UACC-257 melanoma
CCRF-CEM leukemia = tested on: CCRF-CEM leukemia
HOP-92 NSCLC = tested on: HOP-92 NSCLC
HL-60(TB) leukemia = tested on: HL-60(TB) leukemia
COLO 205 colon = tested on: COLO 205 colon
SF-539 CNS = tested on: SF-539 CNS
HOP-62 NSCLC = tested on: HOP-62 NSCLC
TK-10 renal = tested on: TK-10 renal
U251 CNS = tested on: U251 CNS
A498 renal = tested on: A498 renal
PC-3 prostate = tested on: PC-3 prostate
SNB-75 CNS = tested on: SNB-75 CNS
KM12 colon = tested on: KM12 colon
NCI/ADR-RES ovarian = tested on: NCI/ADR-RES ovarian
HCC-2998 colon = tested on: HCC-2998 colon
T-47D breast = tested on: T-47D breast
SK-MEL-5 melanoma = tested on: SK-MEL-5 melanoma
HCT-116 colon = tested on: HCT-116 colon

SMILES: CC(=O)/C=C/C1=C(c2csc3ccccc23)c2ccccc2CC1
- GI50 (SNB-19 CNS): 32.5 µM
- TGI (SNB-19 CNS): > 100 µM
- GI50 (UACC-62 melanoma): 12.8 µM
- TGI (UACC-62 melanoma): 30.5 µM
- GI50 (ACHN renal): 25.4 µM
- TGI (ACHN renal): 88.3 µM
- GI50 (SK-OV-3 ovarian): 22.4 µM
- TGI (SK-OV-3 ovarian): > 100 µM
- GI50 (SR leukemia): 16 µM
- TGI (SR leukemia): 64.6 µM
- GI50 (M14 melanoma): 16.5 µM
- TGI (M14 melanoma): 37.3 µM
- GI50 (CAKI-1 renal): 32.4 µM
- TGI (CAKI-1 renal): > 100 µM
- GI50 (IGROV1 ovarian): 15.4 µM
- TGI (IGROV1 ovarian): > 100 µM
- GI50 (K-562 leukemia): 18.8 µM
- TGI (K-562 leukemia): > 100 µM
- GI50 (NCI-H226 lung): 19.8 µM
- TGI (NCI-H226 lung): 44.1 µM
- GI50 (UO-31 renal): 11.6 µM
- TGI (UO-31 renal): 41.2 µM
- GI50 (SF-268 CNS): 31.8 µM
- TGI (SF-268 CNS): > 100 µM
- GI50 (RPMI-8226 leukemia): 8.69 µM
- TGI (RPMI-8226 leukemia): 47.3 µM
- GI50 (SN12C renal): 32.6 µM
- TGI (SN12C renal): > 100 µM
- GI50 (OVCAR-5 ovarian): 33.8 µM
- TGI (OVCAR-5 ovarian): > 100 µM
- GI50 (SK-MEL-28 melanoma): 16.9 µM
- TGI (SK-MEL-28 melanoma): 37.1 µM
- GI50 (OVCAR-4 ovarian): 17.8 µM
- TGI (OVCAR-4 ovarian): > 100 µM
- GI50 (BT-549 breast): 22.9 µM
- TGI (BT-549 breast): 55 µM
- GI50 (MCF7 breast): 21.8 µM
- TGI (MCF7 breast): 87.8 µM
- GI50 (OVCAR-8 ovarian): 30.4 µM
- TGI (OVCAR-8 ovarian): > 100 µM
- GI50 (786-0 renal): 35.7 µM
- TGI (786-0 renal): > 100 µM
- GI50 (MDA-MB-435): 21.6 µM
- TGI (MDA-MB-435): 70.7 µM
- GI50 (LOX IMVI melanoma): 16.9 µM
- TGI (LOX IMVI melanoma): 48.4 µM
- GI50 (HCT-15 colon): 23.5 µM
- TGI (HCT-15 colon): > 100 µM
- GI50 (DU-145 prostate): 29.4 µM
- TGI (DU-145 prostate): > 100 µM
- GI50 (RXF 393 renal): 20.2 µM
- TGI (RXF 393 renal): 46.5 µM
- GI50 (NCI-H522 lung): 14.2 µM
- TGI (NCI-H522 lung): 67.9 µM
- GI50 (EKVX NSCLC): 30.4 µM
- TGI (EKVX NSCLC): > 100 µM
- GI50 (SK-MEL-2 melanoma): 15.2 µM
- TGI (SK-MEL-2 melanoma): 40.9 µM
- GI50 (HT29 colon): 21.3 µM
- TGI (HT29 colon): > 100 µM
- GI50 (MOLT-4 leukemia): 15.6 µM
- TGI (MOLT-4 leukemia): > 100 µM
- GI50 (SW-620 colon): 28 µM
- TGI (SW-620 colon): > 100 µM
- GI50 (HS 578T breast): 35 µM
- TGI (HS 578T breast): > 100 µM
- GI50 (MALME-3M melanoma): 21.7 µM
- TGI (MALME-3M melanoma): 55.4 µM
- GI50 (OVCAR-3 ovarian): 13.6 µM
- TGI (OVCAR-3 ovarian): 43.3 µM
- GI50 (MDA-MB-231 breast): 22.8 µM
- TGI (MDA-MB-231 breast): 69.5 µM
- GI50 (SF-295 CNS): 21 µM
- TGI (SF-295 CNS): 65.2 µM
- GI50 (A549 NSCLC): 24 µM
- TGI (A549 NSCLC): > 100 µM
- GI50 (UACC-257 melanoma): 20.8 µM
- TGI (UACC-257 melanoma): 53.9 µM
- GI50 (CCRF-CEM leukemia): 23.2 µM
- TGI (CCRF-CEM leukemia): 79.4 µM
- GI50 (HOP-92 NSCLC): 19.5 µM
- TGI (HOP-92 NSCLC): 65.3 µM
- GI50 (HL-60(TB) leukemia): 13.6 µM
- TGI (HL-60(TB) leukemia): 58.3 µM
- GI50 (COLO 205 colon): 20.5 µM
- TGI (COLO 205 colon): 64.8 µM
- GI50 (SF-539 CNS): 26.4 µM
- TGI (SF-539 CNS): 71 µM
- GI50 (HOP-62 NSCLC): 44.5 µM
- TGI (HOP-62 NSCLC): > 100 µM
- GI50 (TK-10 renal): 23.5 µM
- TGI (TK-10 renal): 92.9 µM
- GI50 (U251 CNS): 31.1 µM
- TGI (U251 CNS): > 100 µM
- GI50 (A498 renal): 22.4 µM
- TGI (A498 renal): 50.2 µM
- GI50 (PC-3 prostate): 29.9 µM
- TGI (PC-3 prostate): > 100 µM
- GI50 (SNB-75 CNS): 22.4 µM
- TGI (SNB-75 CNS): > 100 µM
- GI50 (KM12 colon): 14.1 µM
- TGI (KM12 colon): 33.8 µM
- GI50 (NCI/ADR-RES ovarian): 21.8 µM
- TGI (NCI/ADR-RES ovarian): 72.7 µM
- GI50 (HCC-2998 colon): 24.3 µM
- TGI (HCC-2998 colon): 49.6 µM
- GI50 (T-47D breast): 22.6 µM
- TGI (T-47D breast): > 100 µM
- GI50 (SK-MEL-5 melanoma): 13.4 µM
- TGI (SK-MEL-5 melanoma): 28.8 µM
- GI50 (HCT-116 colon): 6.16 µM
- TGI (HCT-116 colon): 95 µM
